Laboratory results as given in patent US20200339548A1, “PYRIMIDINE DERIVATIVES AND THEIR USE FOR THE TREATMENT OF CANCER” (Adorx Therapeutics Limited, priority 2017, published 2020).
Read-outs that look alike come from different tables or passages of the source.

How the values were obtained:
Adenosine A2a receptor = target: T1, Adenosine A2a receptor (Homo sapiens, UniProt P29274); assay: Adenosine receptor TR-FRET binding assay, A2a; settings: displacement of 100 nM CA200645, CHO cell membranes
T1 construct: expressed in transfected cells; host or cells: CHO cell membranes
T1 sequence (P29274 whole entry): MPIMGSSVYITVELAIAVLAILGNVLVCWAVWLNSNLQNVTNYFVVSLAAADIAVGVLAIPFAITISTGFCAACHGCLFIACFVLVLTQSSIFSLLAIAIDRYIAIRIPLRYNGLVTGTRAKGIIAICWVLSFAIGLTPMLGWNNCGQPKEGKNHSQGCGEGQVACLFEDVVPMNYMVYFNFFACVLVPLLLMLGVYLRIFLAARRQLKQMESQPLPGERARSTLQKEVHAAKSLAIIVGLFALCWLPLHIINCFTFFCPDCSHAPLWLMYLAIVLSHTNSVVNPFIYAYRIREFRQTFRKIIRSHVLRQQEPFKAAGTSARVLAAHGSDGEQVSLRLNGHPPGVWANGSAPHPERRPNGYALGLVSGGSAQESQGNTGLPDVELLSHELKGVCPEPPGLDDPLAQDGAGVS
Description: (§1) All FRET binding experiments were conducted at room temperature in white 384-well plates, in assay binding buffer containing 1× LabMed (Cisbio, France), 100 μg/mL saponin, 1% DMSO and 0.02% pluronic acid. Binding of the fluorescently labelled Adenosine receptor antagonist XAC (CA200645, FRET acceptor) to terbium-labelled A1, A2a, A2b and A3 adenosine receptors (FRET donors) was detected by time-resolved FRET due to the close proximity of the donor and acceptor in a binding event. To investigate the ability of unlabelled test compounds to bind to Adenosine A1, A2a, A2b and A3 receptors, dose response curves were constructed that determined the ability of a range of concentrations to inhibit the binding of 30 nM CA200645 to the A2b receptor and 100 nM CA200645 to the A1, A2a, and A3 receptor.
(§2) Serial dilution (1:3 dilutions) of test compounds in neat DMSO and transfer of a 400 nL sample of test compound into the assay plate was carried out using the Mosquito (TTP Labtech, UK). The compound samples were incubated for 2 hours at room temperature with a fixed concentration of CA200645 defined for each receptor (see above) and CHO cell membranes containing the human Adenosine A1 (0.5 μg/well), A2a (0.3 μg/well), A2b (1 μg/well) or A3 (1 μg/well) receptor in 40 μL of assay buffer. Total and non-specific binding of CA200645 was determined in the absence and presence of 10 μM XAC, respectively.
(§3) Following 2 hours incubation, the level of CA200645 binding was detected on a Pherastar FSX (BMG Labtech, Germany) using standard TR-FRET settings. The terbium donor was excited with three laser flashes at a wavelength of 337 nm, and donor and acceptor emission was detected at 620 nm and 665 nm wavelengths, respectively. FRET ratios were obtained by multiplying the acceptor/donor ratio value by 10,000. Specific binding was determined by subtracting the non-specific binding FRET ratio from the total binding FRET ratio. Compound IC50 curves were analysed using GraphPad Prism 7.0 (GraphPad, USA) and Ki affinity values were determined from the obtained […] values using the method of Cheng and Prusoff.

Adenosine A2b receptor = target: T2, Adenosine A2b receptor (Homo sapiens, UniProt P29275); assay: Adenosine receptor TR-FRET binding assay, A2b; settings: Table 9, further testing; displacement of 30 nM CA200645, CHO cell membranes
T2 construct: expressed in transfected cells; host or cells: CHO cell membranes
T2 sequence (P29275 1-332): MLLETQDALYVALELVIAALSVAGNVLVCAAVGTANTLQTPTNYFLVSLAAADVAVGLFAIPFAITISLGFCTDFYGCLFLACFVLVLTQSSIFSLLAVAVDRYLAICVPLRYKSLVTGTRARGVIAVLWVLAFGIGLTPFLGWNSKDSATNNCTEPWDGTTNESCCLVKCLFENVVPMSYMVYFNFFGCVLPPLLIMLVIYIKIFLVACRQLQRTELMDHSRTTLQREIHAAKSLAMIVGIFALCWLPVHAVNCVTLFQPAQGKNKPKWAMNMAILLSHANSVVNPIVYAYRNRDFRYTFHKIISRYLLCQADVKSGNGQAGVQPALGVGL
Description: as §1, §2, §3

Adenosine A3 receptor = target: T3, Adenosine A3 receptor (Homo sapiens, UniProt P0DMS8); assay: Adenosine receptor TR-FRET binding assay, A3
T3 construct: expressed in transfected cells; host or cells: CHO cell membranes
T3 sequence (P0DMS8 1-318): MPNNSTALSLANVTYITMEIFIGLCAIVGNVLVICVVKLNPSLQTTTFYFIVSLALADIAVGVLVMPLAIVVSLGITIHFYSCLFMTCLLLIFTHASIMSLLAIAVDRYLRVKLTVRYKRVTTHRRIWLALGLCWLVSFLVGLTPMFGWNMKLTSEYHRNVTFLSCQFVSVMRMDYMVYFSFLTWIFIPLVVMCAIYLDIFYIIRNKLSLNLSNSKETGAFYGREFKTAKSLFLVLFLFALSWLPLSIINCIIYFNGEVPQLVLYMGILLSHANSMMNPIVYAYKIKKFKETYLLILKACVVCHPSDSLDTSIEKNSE
Description: as §1, §2, §3

Adenosine A1 receptor = target: T4, Adenosine A1 receptor (Homo sapiens, UniProt P30542); assay: Adenosine receptor TR-FRET binding assay, A1; settings: Table 9, further testing; displacement of 100 nM CA200645, CHO cell membranes
T4 construct: expressed in transfected cells; host or cells: CHO cell membranes
T4 sequence (P30542 1-326): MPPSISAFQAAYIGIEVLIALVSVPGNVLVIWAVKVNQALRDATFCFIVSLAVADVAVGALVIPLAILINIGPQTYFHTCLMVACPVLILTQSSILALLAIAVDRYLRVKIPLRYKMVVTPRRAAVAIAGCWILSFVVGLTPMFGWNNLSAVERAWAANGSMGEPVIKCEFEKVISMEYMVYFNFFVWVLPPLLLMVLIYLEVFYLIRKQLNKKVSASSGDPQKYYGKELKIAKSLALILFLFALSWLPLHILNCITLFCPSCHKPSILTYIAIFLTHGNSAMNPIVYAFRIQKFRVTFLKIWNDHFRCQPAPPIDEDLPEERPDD
Description: as §1, §2, §3

[1] = Table 9, further testing, displacement of 100 nM CA200645, CHO cell membranes, read-out: A3 Ki

| Ki (Adenosine A2a receptor; Table 8, Cheng and Prusoff) [nM] | Ki (Adenosine A2a receptor; Table 9, further testing) [nM] | Ki (Adenosine A2b receptor) [nM] | Ki (Adenosine A3 receptor; [1]) [nM] | Ki (Adenosine A1 receptor) [nM] | SMILES | Ki (Adenosine A3 receptor) [nM] |
| --- | --- | --- | --- | --- | --- | --- |
| 33 | 33 | 6630 | 1820 | – | Nc1nc(-c2ccco2)ncc1C(=O)NCc1ccc(F)cc1 [Example 5.14, 4-Amino-N-[(4-fluorophenyl)methyl]-2-(2-furyl)pyrimidine-5-carboxamide] | – |
| – | 11 | 5130 | 3090 | 4790 | Nc1nc(-c2ccco2)ncc1C(=O)NCc1cccc2c1OCO2 [Example 5.52, 4-Amino-N-(1,3-benzodioxol-4-ylmethyl)-2-(2-furyl)pyrimidine-5-carboxamide] | – |
| – | 0.199 | 165 | 24 | 7.5 | Cc1cccnc1CNC(=O)c1c(N)nc(-c2ccco2)nc1OCCCO [Example 20.8, 4-Amino-2-(2-furyl)-6-(3-hydroxypropoxy)-N-[(3-methyl-2-pyridyl)methyl]pyrimidine-5-carboxamide] | – |
| 20 | 20 | 3970 | 2680 | 3550 | Nc1nc(-c2ccco2)ncc1C(=O)NCc1cccc(F)c1 [Example 5.13, 4-Amino-N-[(3-fluorophenyl)methyl]-2-(2-furyl)pyrimidine-5-carboxamide] | – |
| – | 10 | 1410 | 1910 | 1040 | Cc1cccc(CNC(=O)c2cnc(-c3ccco3)nc2N)c1 [Example 5.34, 4-Amino-2-(2-furyl)-N-(m-tolylmethyl) pyrimidine-5-carboxamide] | – |
| – | 3.3 | 437 | 1410 | 1890 | Cc1cccc(CNC(=O)c2cnc(-c3ccco3)nc2N)n1 [Example 5.32, 4-Amino-2-(2-furyl)-N-[(6-methyl-2-pyridyl)methyl]pyrimidine-5-carboxamide] | – |
| 24 | 24 | – | 3050 | 1890 | Nc1nc(-c2ccco2)ncc1C(=O)NCc1cc(F)cc(F)c1 [Example 5.17, 4-Amino-N-[(3,5-difluorophenyl)methyl]-2-(2-furyl)pyrimidine-5-carboxamide] | – |
| 24 | 24 | 4690 | 6030 | 4860 | CCn1ccnc1CNC(=O)c1cnc(-c2ccco2)nc1N [Example 5.26, 4-Amino-N-[(1-ethylimidazol-2-yl)methyl]-2-(2-furyl)pyrimidine-5-carboxamide] | – |
| – | 1.1 | 508 | 830 | 109 | CC(=O)NCCOc1nc(-c2ccco2)nc(N)c1C(=O)NCc1ncccc1C [Example 20, 4-(2-Acetamidoethoxy)-6-amino-2-(2-fury)-N-[(3-methyl-2-pyridyl)methyl]pyrimidine-5-carboxamide] | – |
| – | 11 | 644 | 4630 | 6020 | Nc1cccnc1CNC(=O)c1cnc(-c2ccco2)nc1N [Example 5.53, 4-Amino-N-[(3-amino-2-pyridyl)methyl]-2-(2-furyl)pyrimidine-5-carboxamide] | – |
| 36 | 36 | 536 | 371 | 400 | Nc1nc(-c2cccc(F)c2)ncc1C(=O)NCc1ncccc1Cl [Example 10.12, 4-Amino-N-[(3-chloro-2-pyridyl)methyl]-2-(3-fluorophenyl)pyrimidine-5-carboxamide] | – |
| – | 0.62 | 490 | 73 | 59 | Cc1cccnc1CNC(=O)c1c(N)nc(-c2ccco2)nc1OCCN [Example 23.1, 4-Amino-6-(2-aminoethoxy)-2-(2-furyl)-N-[(3-methyl-2-pyridyl)methyl]pyrimidine-5-carboxamide] | – |
| – | 78 | – | 1090 | 364 | Nc1nc(-c2ccco2)ncc1C(=O)NCc1cc(F)cc(C(F)(F)F)c1 [Example 5.44, 4-Amino-N-[[3-fluoro-5-(trifluoromethyl)phenyl]methyl]-2-(2-furyl)pyrimidine-5-carboxamide] | – |
| – | 40 | – | 1230 | 4480 | Cc1cccnc1C(C)NC(=O)c1cnc(-c2ccco2)nc1N (stereo not shown) [Example 5.57, 4-Amino-2-(2-furyl)-N-[1-(3-methyl-2-pyridyl)ethyl]pyrimidine-5-carboxamide] | – |
| – | 0.54 | 382 | 5.6 | 19 | COCCOc1nc(-c2ccco2)nc(N)c1C(=O)NCc1ncccc1C [Example 20.6, 4-Amino-2-(2-furyl)-6-(2-methoxyethoxy)-N-[(3-methyl-2-pyridyl)methyl]pyrimidine-5-carboxamide] | – |
| – | 0.21 | 540 | 1.4 | 13 | COCC(C)Oc1nc(-c2ccco2)nc(N)c1C(=O)NCc1ncccc1C (stereo not shown) [Example 20.12, 4-Amino-2-(2-furyl)-6-(2-methoxy-1-methyl-ethoxy)-N-[(3-methyl-2-pyridyl)methyl]pyrimidine-5-carboxamide] | – |
| – | 1.08 | – | 611 | 22 | CC(C)n1ncnc1CNC(=O)c1c(N)nc(-c2cccc(C#N)c2)nc1OCCF [Example 24.4, 4-Amino-2-(3-cyanophenyl)-6-(2-fluoroethoxy)-N-[(2-isopropyl-1,2,4-triazol-3-yl)methyl]pyrimidine-5-carboxamide] | – |
| – | 54 | – | 1470 | 4080 | Nc1nc(-c2ccco2)ncc1C(=O)N[C@H](CO)c1ccccc1 [Example 5.61, 4-Amino-2-(2-furyl)-N-[(1S)-2-hydroxy-1-phenyl-ethyl]pyrimidine-5-carboxamide] | – |
| 298 | 298 | – | 5780 | 5660 | Nc1nc(-c2ccco2)ncc1C(=O)NCc1ccc(C(F)(F)F)cc1 [Example 5.28, 4-amino-2-(2-furyl)-N-[[4-(trifluoromethyl)phenyl]methyl]pyrimidine-5-carboxamide] | – |
| – | 0.1 | – | 28.5 | 3.8 | Cc1cccnc1CNC(=O)c1c(N)nc(-c2cccc(C#N)c2)nc1OCCF [Example 24.8, 4-Amino-2-(3-cyanophenyl)-6-(2-fluoroethoxy)-N-[(3-methyl-2-pyridyl)methyl]pyrimidine-5-carboxamide] | – |
| – | 287 | – | 6700 | 7550 | Cc1cccnc1CNC(=O)c1c(N)nc(-c2ccco2)nc1OCCN1CCNCC1 [Example 23.2, 4-Amino-2-(2-furyl)-N-[(3-methyl-2-pyridyl)methyl]-6-(2-piperazin-1-ylethoxy)pyrimidine-5-carboxamide] | – |

| SMILES | Ki (Adenosine A2a receptor; Table 8, Cheng and Prusoff) [nM] | Ki (Adenosine A2a receptor; Table 9, further testing) [nM] | Ki (Adenosine A2b receptor) [nM] | Ki (Adenosine A3 receptor; [1]) [nM] | Ki (Adenosine A1 receptor) [nM] | Ki (Adenosine A3 receptor) [nM] |
| --- | --- | --- | --- | --- | --- | --- |
| Nc1nc(-c2ccco2)ncc1C(=O)NCc1ncccc1C(F)(F)F [Example 5.30, 4-Amino-2-(2-furyl)-N-[[3-(trifluoromethyl)-2-pyridyl]methyl]pyrimidine-5-carboxamide] | – | 2.7 | 2350 | – | 4750 | 2300 |
